Test results: paper PMC7029871, “Development and validation of a sensitive LC-MS/MS method for the quantitation of IMB-YH-4py5-2H, an antituberculosis candidate, and its application to the pharmacokinetic study” (PLoS ONE, 2020)
Like-named read-outs stand apart in the source and are kept apart here.

Assays:
CYP2A6 = biological target: T1, CYP2A6 (Homo sapiens, UniProt P11509); assay: Metabolism by recombinant human P450 enzyme; format: in vitro ADME; conditions: recombinant CYP2A6 0.05 nmol/mL, 1 μM, 30 min
T1 construct: purchased Corning (Woburn, MA, USA)
T1 sequence (P11509 1-494): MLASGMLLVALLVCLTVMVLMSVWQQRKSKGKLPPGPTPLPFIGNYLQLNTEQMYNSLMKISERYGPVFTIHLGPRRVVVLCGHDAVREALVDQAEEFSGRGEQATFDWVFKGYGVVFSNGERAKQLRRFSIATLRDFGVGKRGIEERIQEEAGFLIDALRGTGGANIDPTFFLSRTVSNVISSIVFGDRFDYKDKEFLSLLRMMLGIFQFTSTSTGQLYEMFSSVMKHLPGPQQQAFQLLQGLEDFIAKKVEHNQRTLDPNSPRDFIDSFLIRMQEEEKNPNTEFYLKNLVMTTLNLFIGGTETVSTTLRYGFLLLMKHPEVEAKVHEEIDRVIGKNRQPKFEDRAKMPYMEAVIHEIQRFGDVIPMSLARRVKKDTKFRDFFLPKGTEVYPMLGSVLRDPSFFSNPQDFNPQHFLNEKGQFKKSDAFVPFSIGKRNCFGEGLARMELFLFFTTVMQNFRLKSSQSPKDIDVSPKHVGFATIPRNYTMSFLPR
Description: (§1) In addition, to characterize the enzymes that may be involved in microsomal metabolism, IMB-YH-4py5-2H was incubated at 37°C for 30 min with different recombinant human P450 enzymes, i.e., CYP1A2, CYP2A6, CYP2B6, CYP2C8, CYP2C9, CYP2C19, CYP2D6, CYP2E1, CYP3A4 and CYP3A5. The incubation system included CYP isoenzyme at a final concentration of 0.05 nmol/mL, 100 mM PBS (pH 7.4) or 100 mmol/L Tris buffer (pH 7.5, Tris buffer was used in the CYP2C9 and CYP2A6 reaction systems and PBS was used for the other enzymes), NADPH regeneration system, and 1 μM IMB-YH-4py5-2H.
(§2) After incubation, the samples were processed as described in “Sample processing”. All experiments were performed in triplicate. The concentration of IMB-YH-4py5-2H was measured using LC-MS/MS analysis.

CYP1A2 = biological target: T2, CYP1A2 (Homo sapiens, UniProt P05177); assay: Metabolism by recombinant human P450 enzyme; format: in vitro ADME; conditions: recombinant CYP1A2 0.05 nmol/mL, 1 μM, 30 min
T2 construct: purchased Corning (Woburn, MA, USA)
T2 sequence (P05177 1-516): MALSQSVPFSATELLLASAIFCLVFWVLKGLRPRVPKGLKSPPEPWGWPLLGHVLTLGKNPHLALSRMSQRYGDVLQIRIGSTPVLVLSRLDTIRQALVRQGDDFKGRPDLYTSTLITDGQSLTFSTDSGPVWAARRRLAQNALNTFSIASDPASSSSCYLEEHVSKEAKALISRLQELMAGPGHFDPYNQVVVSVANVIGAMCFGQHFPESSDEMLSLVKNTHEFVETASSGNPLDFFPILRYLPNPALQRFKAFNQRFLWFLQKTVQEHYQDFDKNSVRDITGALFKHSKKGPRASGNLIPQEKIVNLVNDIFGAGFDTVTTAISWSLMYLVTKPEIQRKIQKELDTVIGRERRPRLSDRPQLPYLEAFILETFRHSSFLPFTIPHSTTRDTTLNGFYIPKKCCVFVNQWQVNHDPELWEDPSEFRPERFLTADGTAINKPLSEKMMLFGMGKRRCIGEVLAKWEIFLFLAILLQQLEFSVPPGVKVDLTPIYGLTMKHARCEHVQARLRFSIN
Description: as §1, §2

[1] = Distribution in plasma, lung homogenate, ELF and AMs after oral dose; format: in vivo, Sprague-Dawley rats; conditions: rat, single oral dose 100 mg/kg; for concentration at 8 h / concentration at 30 h / concentration at 0.083 h / concentration at 0.5 h: both sexes, Sprague-Dawley
Description: After the oral administration of 100 mg/kg IMB-YH-4py5-2H, rats from each group (six rats per group and three rats per sex) were sacrificed at 5 min, 0.5 h, 8 h, and 30 h. Rat lungs were collected, rinsed with saline, wiped dry, accurately weighed and homogenized with ultrapure water. The homogenate was kept at −20°C until analysis.
As two representative infectious sites in lower respiratory tract infections, lung epithelial lining fluid (ELF) and alveolar macrophages (AMs) were investigated to determine the distribution of IMB-YH-4py5-2H. Freshly collected rat lungs were lavaged three times from the trachea with 5 mL of ice-cold phosphate buffer (pH 7.4). The lavage fluid was centrifuged at 4°C (650 × g, 5 min) to separate AMs from the ELF, immediately. The cell counts of the resuspended AMs were assessed by using the haemocytometer. The AMs were extracted with 1 mL of 0.1 M NaOH for analysis. To calculate the concentrations of IMB-YH-4py5-2H in ELF and AMs, reported data were employed. As reported, the total volume of ELF was estimated to be 393 μL/rat (~200 g body weight), and the intracellular volume of a single AM was 1166 μm^3 [25]. Based on the reported volume of a single AM, the raw data of IMB-YH-4py5-2H concentrations in AMs, expressed as ng/10^5 cells, were converted to the values with the unit of μg/mL (Eq 1), which was consistent with the unit of concentrations in plasma and ELF and easier for comparison.
CAM (μg/mL) is the concentration of IMB-YH-4py5-2H expressed as μg/mL, CAM (ng/10^5 cells) is the concentration with the unit of ng/10^5 cell, and V is the volume of a single AM (1166 μm^3).
The homogenate, ELF, and AM samples were processed as described in “Sample processing” and injected into the LC-MS/MS system for analysis.

**Q.** For `CN(C)C(=O)/C=C/C(=O)c1ccc(-c2ccncc2)cc1.Cl` [IMB-YH-4py5-2H, (E)-N,N-dimethyl-4-oxo-4-(4-(pyridin-4-yl)phenyl)but-2-enamide hydrochloride], which “metabolism by CYP isozyme” value (CYP2A6) is on record?
**A.** high metabolic activity

**Q.** And the “metabolism by CYP isozyme” value (CYP1A2)?
**A.** high metabolic activity

**Q.** What about the concentration at 8 h ([1]; alveolar macrophages (AMs), 8 h, converted with reported volume of a single AM (Eq 1), read-out: Concentration, AMs) of the same compound?
**A.** 99700 ± 36700 ng/mL

**Q.** And the concentration at 30 h ([1]; alveolar macrophages (AMs), 30 h, converted with reported volume of a single AM (Eq 1), read-out: Concentration, AMs)?
**A.** 25300 ± 19400 ng/mL

**Q.** And the concentration at 0.083 h ([1]; lung epithelial lining fluid (ELF), 0.083 h, ELF volume taken as 393 μL/rat, read-out: Concentration, ELF)?
**A.** 639 ± 93 ng/mL

**Q.** What about the concentration at 0.5 h ([1]; lung epithelial lining fluid (ELF), 0.5 h, ELF volume taken as 393 μL/rat, read-out: Concentration, ELF) of the same compound?
**A.** 1800 ± 264 ng/mL

**Q.** What about the concentration at 8 h ([1]; lung epithelial lining fluid (ELF), 8 h, ELF volume taken as 393 μL/rat, read-out: Concentration, ELF) of the same compound?
**A.** 121 ± 32 ng/mL

**Q.** And the concentration at 30 h ([1]; lung epithelial lining fluid (ELF), 30 h, ELF volume taken as 393 μL/rat, read-out: Concentration, ELF)?
**A.** 50 ± 45 ng/mL

**Q.** And the concentration at 0.083 h ([1]; lung homogenate, 0.083 h, read-out: Concentration, lung homogenate)?
**A.** 4410 ± 607 ng/g

**Q.** What about the concentration at 0.5 h ([1]; lung homogenate, 0.5 h, read-out: Concentration, lung homogenate) of the same compound?
**A.** 10900 ± 1960 ng/g

**Q.** What about the concentration at 8 h ([1]; lung homogenate, 8 h, read-out: Concentration, lung homogenate) of the same compound?
**A.** 107 ± 22 ng/g

**Q.** What about the concentration at 30 h ([1]; lung homogenate, 30 h, read-out: Concentration, lung homogenate) of the same compound?
**A.** 11 ± 3 ng/g

**Q.** What about the concentration at 0.083 h ([1]; plasma, 0.083 h, read-out: Concentration, Plasma) of the same compound?
**A.** 917 ± 71 ng/mL

**Q.** What about the concentration at 0.5 h ([1]; plasma, 0.5 h, read-out: Concentration, Plasma) of the same compound?
**A.** 1060 ± 192 ng/mL

**Q.** And the concentration at 8 h ([1]; plasma, 8 h, read-out: Concentration, Plasma)?
**A.** 155 ± 29 ng/mL

**Q.** And the concentration at 30 h ([1]; plasma, 30 h, read-out: Concentration, Plasma)?
**A.** 39 ± 12 ng/mL

**Q.** What about the “Concentration, AMs” value ([1]; 0.083 h) of the same compound?
**A.** 166.763±40.110 ng/10^5 cells

**Q.** And the “Concentration, AMs” value ([1]; 0.083 h, converted with reported volume of a single AM (Eq 1))?
**A.** 1494.295 ± 359.408 µg/mL

**Q.** And the “Concentration, AMs” value ([1]; 0.5 h)?
**A.** 227.198±35.589 ng/10^5 cells

**Q.** What about the “Concentration, AMs” value ([1]; 0.5 h, converted with reported volume of a single AM (Eq 1)) of the same compound?
**A.** 2035.827 ± 318.898 µg/mL

**Q.** What about the “Concentration, AMs” value ([1]; 8 h) of the same compound?
**A.** 11.128±4.099 ng/10^5 cells

**Q.** What about the “Concentration, AMs” value ([1]; 30 h) of the same compound?
**A.** 2.823±2.164 ng/10^5 cells
